Values of other authors, collected in patent US20160220512A1, “MODIFIED RELEASE PHARMACEUTICAL FORMULATIONS” (RUBICON RESEARCH PRIVATE LIMITED, priority 2013, published 2016).

Legend:
[1] = memantine and its salts
[2] = test system: N-methyl d-aspartate (NMDA) receptor; conditions: uncompetitive NMDA receptor antagonist

- BCS classification [1]: BCS Class I
- permeability [1]: highly permeable
- solubility [1]: highly soluble
- affinity for the receptor [2]: moderate affinity
Structure (SMILES): CC12CC3CC(C)(C1)CC(N)(C3)C2 [Memantine, 1-amino-3,5-dimethyladamantane]
